“Also recorded” adds a separate entry of the source.
Assays:
[1] = test system: RTV-675 (patient sample 98-675); assay: Phenotypic susceptibility assay, RTV-675; type: cell-based, HIV-1; conditions: RTV-675, patient-derived pool
Procedure: (§1) Transfections were performed using a calcium-phosphate precipitation procedure. […] Cell lysates were assayed for luciferase activity (FIG. 3).
(§2) The drug inhibition curves are shown in (FIG. 3).
A resistance test vector was constructed as described in Example 1 from a patient sample designated 98-675. This patient had been previously treated with ddI, AZT, and 3TC (NRTIs), and saquinavir and nelfinavir (PRIs). Isolation of viral RNA and RT/PCR was used to generate a patient derived segment that comprised viral sequences coding for all of PR and aa 1-313 of RT. The PDS was inserted into an indicator gene viral vector to generate a resistance test vector designated RTV-675. RTV-675 was then tested in a phenotypic assay to determine accurately and quantitatively the level of susceptibility to a panel of anti-retroviral drugs. […] The pattern of susceptibility to all of the drugs tested was examined and compared to known patterns of susceptibility.

[2] = test system: RTV-955 (patient sample 98-955); assay: Phenotypic susceptibility assay, RTV-955; type: cell-based, HIV-1; conditions: RTV-955, patient-derived pool
Procedure: as §1, §2
A resistance test vector was constructed as described in Example 1 from a patient sample designated 98-955. This patient had been previously treated with nelfinavir (a PRI) Isolation of viral RNA and RT/PCR was used to generate a patient derived segment that comprised viral sequences coding for all of PR and aa 1-313 of RT. The PDS was inserted into an indicator gene viral vector to generate a resistance test vectors designated RTV-955. RTV-955 was then tested in a phenotypic assay to determine accurately and quantitatively the level of susceptibility to a panel of anti-retroviral drugs. […] An IC50 was determined for the resistance test vector pool for each drug tested. The pattern of susceptibility to all of the drugs tested was examined and compared to known patterns of susceptibility.

[3] = test system: RTV-1058 Clone 4 (K103N and Y188L); assay: Phenotypic susceptibility assay, RTV-1058 clone 4; type: cell-based, HIV-1
Procedure: (§3) The resistance test vectors containing a functional luciferase gene cassette were constructed and host cells were transfected with the resistance test vector DNA. The resistant test vectors contained patient-derived reverse transcriptase and protease sequences that were either susceptible or resistant to the antiretroviral agents, such as nucleoside reverse transcriptase inhibitors, non-nucleoside reverse transcriptase inhibitors and protease inhibitors. […] The IC50 values were determined by plotting percent drug inhibition vs. log10 drug concentration.
(§4) Host cells were seeded in 10-cm-diameter dishes and were transfected several days after plating with resistance test vector plasmid DNA and the envelope expression vector. […] HIV capsid protein (p24) levels in the harvested cell culture media were determined by an EIA method as described by the manufacturer (SIAC; Frederick, Md.). […] The inhibitory effect of the drug was determined using the following equation: […]
(§5) A resistance test vector was constructed as described in Example 1 from a patient sample designated 98-1058. […] An IC50 was determined for the resistance test vector pool for each drug tested.

[4] = test system: RTV-1058 Clone 5 (L100I and K103N); assay: Phenotypic susceptibility assay, RTV-1058 clone 5; type: cell-based, HIV-1
Procedure: as §3, §4, §5

[5] = test system: P225H-RTV (HIV reverse transcriptase P225H); assay: Phenotypic susceptibility assay, P225H-RTV; type: cell-based, HIV-1; conditions: P225H mutation alone
Procedure: as §1, §2
(§6) Resistance test vectors were constructed containing the P225H mutation alone and in combination with other known drug resistance mutations (K103N, Y181C) known to modulate the HIV susceptibility to NNRTIs. […] (Sakar G and Sommar SS (1994) Biotechniques 8(4), 404-407). […] The pattern of phenotypic susceptibility to the NNRTI, delavirdine in the P225H-RTV was altered as compared to wild type.

[6] = test system: RTV-268 (patient sample 97-268; P236L); assay: Phenotypic susceptibility assay, RTV-268; type: cell-based, HIV-1; conditions: RTV-268 / patient 268
Text: (§7) The resistance test vectors containing a functional luciferase gene cassette were constructed and host cells were transfected with the resistance test vector DNA. The resistant test vectors contained patient-derived reverse transcriptase and protease sequences that were either susceptible or resistant to the antiretroviral agents, such as nucleoside reverse transcriptase inhibitors, non-nucleoside reverse transcriptase inhibitors and protease inhibitors. The resistance test vector viral particles produced by transfecting the resistance test vector DNA into host cells, either in the presence or absence of protease inhibitors, were used to infect target host cells grown either in the absence of NRTI or NNRTI or in the presence of increasing concentrations of the drug. The amount of luciferase activity produced in infected target host cells in the presence of drug was compared to the amount of luciferase produced in infected target host cells in the absence of drug. Drug resistance was measured as the amount of drug required to inhibit by 50% the luciferase activity detected in the absence of drug (inhibitory concentration 50%, IC50). The IC50 values were determined by plotting percent drug inhibition vs. log10 drug concentration.
Host cells were seeded in 10-cm-diameter dishes and were transfected several days after plating with resistance test vector plasmid DNA and the envelope expression vector. Transfections were performed using a calcium-phosphate precipitation procedure. The cell culture media containing the DNA precipitate was replaced with fresh medium, from one to 24 hours, after transfection. Cell culture media containing resistance test vector viral particles was harvested one to four days after transfection and was passed through a […] filter before being stored at −80° C. HIV capsid protein (p24) levels in the harvested cell culture media were determined by an EIA method as described by the manufacturer (SIAC; Frederick, Md.). Before infection, target cells (293 and 293/T) were plated in cell culture media. Control infections were performed using cell culture media from mock transfections (no DNA) or transfections containing the resistance test vector plasmid DNA without the envelope expression plasmid. One to three or more days after infection the media was removed and cell lysis buffer (Promega) was added to each well. […] The inhibitory effect of the drug was determined using the following equation: […]
where RLUluc [drug] is the relative light unit of luciferase activity in infected cells in the presence of drug and RLUluc is the Relative Light Unit of luciferase activity in infected cells in the absence of drug. IC50 values were obtained from the sigmoidal curves that were generated from the data by plotting the percent inhibition of luciferase activity vs. the log10 drug concentration.
A resistance test vector was constructed as described in Example 1 from a patient sample designated 97-268. […] Isolation of viral RNA and RT/PCR was used to generate a patient derived segment that comprised viral sequences coding for all of PR and amino acids 1-313 of RT. The patient derived segment was inserted into a indicator gene viral vector to generate a resistance test vector designated RTV-268. RTV-268 was then tested using the phenotypic susceptibility assay to determine accurately and quantitatively the level of susceptibility to a panel of anti-retroviral drugs. […] An IC50 was determined for each drug tested. Susceptibility of the patient virus to each drug was examined and compared to the susceptibility of a reference virus. […] The sample was examined further for genotypic changes associated with the pattern of susceptibility.

[7] = test system: patient 487 virus (RT M184V, K103N); assay: Phenotypic susceptibility assay, patient 487; type: cell-based, HIV; conditions: patient 487, FIG. 4
Text: as §7, with “The amount of luciferase activity produced in infected target host cells in the presence of drug was compared to the amount of luciferase produced in infected target host cells in the absence of drug. Drug resistance was measured as the amount of drug required to inhibit by 50% the luciferase activity detected in the absence of drug (inhibitory concentration 50%, IC50).” left out
as §4

[8] = test system: RTVs containing P225H plus K103N, Y181C or both (K103N+Y181C); assay: Phenotypic susceptibility assay, P225H added to K103N, Y181C or both; type: cell-based, HIV-1; conditions: P225H with K103N
Procedure: as §1, §2, §6

SMILES	fold decrease in susceptibility (IC50) [1] [fold]	fold decrease in susceptibility (IC50) [2] [fold]	fold loss of susceptibility (IC50) [3]	fold loss of susceptibility (IC50) [4] [fold]	change in susceptibility compared to wild type control RTV [5]	susceptibility/resistance compared to reference virus [6]	susceptibility/resistance profile [7]	change in susceptibility compared to the corresponding RTV lacking P225H [8]
CC(C)Nc1cccnc1N1CCN(C(=O)c2cc3cc(NS(C)(=O)=O)ccc3[nH]2)CC1 [delavirdine]	2.1	4	85 fold	250	more susceptible to delavirdine than the wild type control RTV	resistant to delavirdine; also recorded: phenotypic resistance to delavirdine	increased resistance	more susceptible to inhibition by delavirdine if the P225H mutation was present
Cc1ccnc2c1NC(=O)c1cccnc1N2C1CC1 [nevirapine]	6	530	greater than 800 fold	120	No significant change in nevirapine susceptibility	no change in nevirapine susceptibility; also recorded: nevirapine susceptibility was the same as wild type	increased resistance	did not significantly change nevirapine susceptibility

Reference: patent US20020094522A1, “Means and methods for monitoring non-nucleoside reverse transcriptase inhibitor antiretroviral therapy and guiding therapeutic decisions in the treatment of HIV/AIDS” (priority 2000, published 2002)
